The values that follow come from article PMC11645267, “Novel pharmacologic inhibition of lysine-specific demethylase 1 as a potential therapeutic for glioblastoma” (Cancer Gene Therapy, 2024).

One assay has as its system GSC1228 cells. The assay can be described thus: ChIP-seq analysis of histone modifications. Format: cell-based, human. Particulars: GSC1228, 5 μM, versus DMSO. As to the method:
Cells (1 × 10^6) were treated with 1% formaldehyde for 8 min to crosslink histones to DNA. After washing with cold PBS, cell pellets were lysed with lysis buffer (10 mM Tris-HCl, 0.25% Triton X-100, 10 mM EDTA, and 0.1 M NaCl). Cell nuclei were collected after centrifugation and re-suspended in SDS lysis buffer (1% SDS, 150 mM NaCl, 50 mM HEPES-KOH, 2 mM EDTA, 1% Triton X-100, and 0.1% sodium deoxycholate). Chromatin was sonicated using Covaris S220 (Covaris, Moburn, MA, USA). Lysates were incubated overnight with 50 μL of Dynabeads Protein G (Thermo Fisher Scientific) which were pre-coated with 4 μL of anti-H3K4me1 antibody (ab8895, Abcam, Cambridge, UK), 3 μL of anti-H3K4me2 antibody (#39141, Active Motif), 2.5 μL of anti-H3K4me3 antibody (#39159, Active Motif), 4 μL of anti-H3K9me2 antibody (ab1220, Abcam). The beads were washed and protein-DNA complexes were eluted with elution buffer (1% SDS, 10 mM EDTA, and 50 mM Tris-HCl) and then treated with RNase for 2 h at 37°C followed by proteinase K treatment overnight. DNA was extracted by the phenol/chloroform method, ethanol-precipitated and re-suspended in 0.1 × TE buffer. 10% of the lysate was treated with RNase and proteinase K and de-crosslinked as input samples.
ChIP DNA (n = 2 for each antibody in each condition) was used to make sequence libraries using NEBNext Ultra II DNA library Prep kit for the Illumina (New England Biolabs, Ipswich, MA, USA). Library quality was checked using the Agilent Bioanalyzer 2100 (Agilent Technologies, Santa Clara, CA, USA) and then libraries were run on an Illumina Hiseq XTen (Illumina, San Diego, CA, USA).
ChIP-seq clean reads were obtained from raw reads by the removal of adaptors and low-quality reads. The clean reads were aligned to the human genome (hg38) using Bowtie2 (version 2.4.2). The levels of histone modification at gene promoters were estimated by counting the numbers of reads mapped within a 2-kb region around the transcriptional start site using MACS2 [30] and HOMER [31]. Differential analysis of peaks and generation of heatmap were performed using BEDtools v2.30.0 [32]. HOMER was used to annotate ChIP-seq peaks for genomic location and link these peaks to nearby genes. TF binding motif analysis was performed using HOMER. BEDtools was used to obtain overlap peaks with super-enhancers and H3K4me2 peaks. Furthermore, we used our deposited GSC316 H3K27ac ChIP-seq data (GSE178471) and identified super-enhancers by the Rank Ordering of Super Enhancer (ROSE) algorithm. From this analysis, we identified 672 super-enhancers.
To precisely evaluate the effects of S2172 on histone modifications at a genome-wide scale, we performed ChIP-seq analysis in GSC1228 cells treated with either DMSO or S2172. […]

The subject of another assay is GSC and LN229 cells. The experiment in a line: PARP cleavage (apoptosis) by western blot. It counts as cell-based. Particulars: GSC1228, GSC222, GSC316, LN229; 5 μM. From the text:
Super-enhancers consist of enhancer clusters with abundant binding of transcription factors and are highly enriched with H3K27ac marks. The H3K4me2 increased regions included the MYC locus and H3K4me2 de novo regions comprised Nestin and SOX2 loci (Fig. 2F, Supplementary Fig. S5A). These regions were also identified as super-enhancers in GSCs using data from our previous study (Fig. 2F). Compared to the large increase in H3K4me2 in these regions, changes in H3K4me3 were subtle after S2172 treatment (only 2582 regions were acquired modification) (Fig. 2C). Increasing the me2/me3 ratio at H3K4 is associated with reduced gene expression.
A mRNA expression of stem cell marker genes following 96 h treatment of GSC1228 with S2172 (5 μM). The y-axis indicates the expression change relative to DMSO-treated cells. Error bar indicates the SD. *P < 0.05. B Left panel, western blot analysis of MYC, Nestin, and SOX2 after treatment of GSC1228 with either DMSO or S2172 (5 μM) for 96 h. β-actin (ACTB) was used as the loading control. Right panel, Quantification of band signal intensities from the western blot. […] The ratio was calculated by dividing the cleaved-PARP band intensity by the full length-PARP band intensity. […]
[…] Quantification of signal intensity of western blot (right panel). […] Ratio was calculated by dividing cleaved band intensity by total protein band intensity. […]

For the next assay, the target named is LSD1 (Homo sapiens, UniProt O60341). The assay can be described thus: Enzyme inhibition assay (in vitro peroxidase assay) against LSD1.

Method for LSD1: Enzyme inhibition assays against LSD1, LSD2, MAO-A, and MAO-B were performed as previously described [25]. Technical replicates, n = 3.

Broadly, the Ki is the equilibrium dissociation constant of an inhibitor or competing ligand from its target. A lower Ki goes with tighter binding. The kinact is the maximal first-order rate at which the target is inactivated. `NC1CCC(NC2CC2c2cc(F)cc(F)c2OCc2ccccc2)CC1` (centres unmarked) [S2172]: in the assay with GSC1228 cells, the “de novo H3K4me3 regions after treatment” value was determined as 2582 regions, the “new H3K4me2 regions (de novo regions) after treatment” value is on record as 20,085 regions, the “regions already modified by H3K4me2 with increased H3K4me2 after treatment” value was 25,326 regions and the “regions from which H3K4me2 was lost after treatment” value is 5788 regions. Also, the “apoptosis, increased cleaved PARP” value in the assay on GSC and LN229 cells is recorded as “induced apoptosis”. On LSD1, this molecule registered a Ki of 270 ± 60 nM. Further, at LSD1 (read-out: kinact LSD1), the kinact was found to be 0.0026 ± 0.0002 s⁻¹. Also, the kinact/KI at LSD1 (read-out: kinact/Ki LSD1) was found to be 9800 ± 570 M⁻¹ s⁻¹.
